assay: Fluorescence properties and quantum yield measurements of the BAA library; format: physicochemical; parameters: FWHM (full-width-at half max): unit not given here; details: anhydrous DMSO
Procedure: General Instruments. Synthesized sample purification was performed with an Agilent 1260 Infinity HPLC utilizing a C18 column (150mm×21.2 mm). MS (HRMS, ESI) spectra data was collected with an Agilent 6244 TOF LC/MS with diode array detector VL+ and C18 column (4.6 mm×50 mm). Absorbance and fluorescence data were measured on a SpectraMax M5 Microplate reader. NMR spectra, ^1H and ^13C, were recorded on a Bruker ARK400 spectrometer. BAA microscopy screening in cells for organelle specificity and signal-to-background ratio was completed with an Axio Zeiss Light Microscope and 63× oil immersion objective.
Fluorescence Properties and Quantum Yield Measurements. Spectroscopic characterizations were performed in anhydrous DMSO in polystyrene 96 well plate. Analysis included the maximum absorbance wavelength, maximum fluorescence emission wavelength, full-width-at half max, and quantum yield. Quantum yields (φfl) were determined by comparing the area under the emission spectrum of the BAA compound to a reference fluorophore solution at three concentrations using equation 1, where Grad represents the gradient from the plots of integrated fluorescence intensity vs absorbance at three concentrations and q is the refractive index of the solvent. Fluorescein in 0.1 M NaOH (φfl=0.91)^3 was the reference for samples with a max absorbance up to 510 nm, where an excitation of 470 nm was used with the emission integrated between 490 to 800 nm. Rhodamine B in ethanol (φfl=0.70) was the reference for samples with a max absorbance between 511-595 nm, where an excitation of 525 nm was used with the emission integrated between 545 to 800 nm. Cresyl violet in methanol (φfl=0.54)^4 was the reference for samples with a max absorbance above 595 nm, where an excitation of 570 nm was used with the emission integrated between 590 to 800 nm.

| SMILES | Stokes Shift [nm] |
| --- | --- |
| CC1=CC(C=Cc2ccc(OC(=O)c3ccc(Cl)cc3)cc2)=[N+]2C1=Cc1ccc(CCC(=O)O)n1[B-]2(F)F [BAA-43a] | 10 |
| COc1cc(C=CC2=[N+]3C(=Cc4ccc(C(=Cc5ccc(OCc6cccc(C(F)(F)F)c6)c(OC)c5)CC(=O)O)n4[B-]3(F)F)C(C)=C2)ccc1OCc1cccc(C(F)(F)F)c1 [BAA-44b] | 18 |
| CCOc1ccc(C=CC2=[N+]3C(=Cc4ccc(CCC(=O)O)n4[B-]3(F)F)C(C)=C2)c(OCC)c1 [BAA-47a] | 22 |
| CC1=CC(C=Cc2c[nH]c3ccc(OCc4ccccc4)cc23)=[N+]2C1=Cc1ccc(CCC(=O)O)n1[B-]2(F)F [BAA-48a] | 38 |
| CC1=CC(C=Cc2cc(-n3ccnc3)ccc2C)=[N+]2C1=Cc1ccc(CCC(=O)O)n1[B-]2(F)F [BAA-50a] | 10 |
| CC1=CC(C=Cc2cc(-n3ccnc3)ccc2C)=[N+]2C1=Cc1ccc(C(=Cc3cc(-n4ccnc4)ccc3C)CC(=O)O)n1[B-]2(F)F [BAA-50b] | 9 |
| CCOc1ccc2[nH]c(=O)cc(C=CC3=[N+]4C(=Cc5ccc(CCC(=O)O)n5[B-]4(F)F)C(C)=C3)c2c1 [BAA-51a] | 13 |
| C#CCOc1c(Cl)cc(C=CC2=[N+]3C(=Cc4ccc(CCC(=O)O)n4[B-]3(F)F)C(C)=C2)cc1OC [BAA-52a] | 8 |
| COc1cc(C=CC2=[N+]3C(=Cc4ccc(CCC(=O)O)n4[B-]3(F)F)C(C)=C2)cc(OC)c1 [BAA-53a] | 11 |
| CC1=CC(/C=C/c2ccc(Cl)c(F)c2)=[N+]2C1=Cc1ccc(CCC(=O)O)n1[B-]2(F)F [BAA-54a] | 8 |
| CC1=CC(C=Cc2cnn(-c3ccccc3)c2C)=[N+]2C1=Cc1ccc(CCC(=O)O)n1[B-]2(F)F [BAA-55a] | 16 |
| CC1=CC(C=Cc2cnn(-c3ccccc3)c2C)=[N+]2C1=Cc1ccc(C(=Cc3cnn(-c4ccccc4)c3C)CC(=O)O)n1[B-]2(F)F [BAA-55b] | 16 |
| CC1=CC(C=Cc2ccc(-c3cccs3)nc2)=[N+]2C1=Cc1ccc(CCC(=O)O)n1[B-]2(F)F [BAA-56a] | 10 |
| CC1=CC(C=Cc2ccc(-c3cccs3)nc2)=[N+]2C1=Cc1ccc(C(=Cc3ccc(-c4cccs4)nc3)CC(=O)O)n1[B-]2(F)F [BAA-56b] | 11 |
| CC1=CC(C=Cc2cnn(-c3ccccc3C)c2C)=[N+]2C1=Cc1ccc(CCC(=O)O)n1[B-]2(F)F [BAA-57a] | 16 |

same assay, conditions: anhydrous DMSO, polystyrene 96 well plate

| SMILES | λmax ABS [nm] | λmax EM [nm] |
| --- | --- | --- |
| CC1=CC(C=Cc2ccc(OC(=O)c3ccc(Cl)cc3)cc2)=[N+]2C1=Cc1ccc(CCC(=O)O)n1[B-]2(F)F [BAA-43a] | 569 | 579 |
| COc1cc(C=CC2=[N+]3C(=Cc4ccc(C(=Cc5ccc(OCc6cccc(C(F)(F)F)c6)c(OC)c5)CC(=O)O)n4[B-]3(F)F)C(C)=C2)ccc1OCc1cccc(C(F)(F)F)c1 [BAA-44b] | 582 | 600 |
| CCOc1ccc(C=CC2=[N+]3C(=Cc4ccc(CCC(=O)O)n4[B-]3(F)F)C(C)=C2)c(OCC)c1 [BAA-47a] | 589 | 611 |
| CC1=CC(C=Cc2c[nH]c3ccc(OCc4ccccc4)cc23)=[N+]2C1=Cc1ccc(CCC(=O)O)n1[B-]2(F)F [BAA-48a] | 603 | 641 |
| CC1=CC(C=Cc2cc(-n3ccnc3)ccc2C)=[N+]2C1=Cc1ccc(CCC(=O)O)n1[B-]2(F)F [BAA-50a] | 571 | 581 |
| CC1=CC(C=Cc2cc(-n3ccnc3)ccc2C)=[N+]2C1=Cc1ccc(C(=Cc3cc(-n4ccnc4)ccc3C)CC(=O)O)n1[B-]2(F)F [BAA-50b] | 572 | 581 |
| CCOc1ccc2[nH]c(=O)cc(C=CC3=[N+]4C(=Cc5ccc(CCC(=O)O)n5[B-]4(F)F)C(C)=C3)c2c1 [BAA-51a] | 594 | 607 |
| C#CCOc1c(Cl)cc(C=CC2=[N+]3C(=Cc4ccc(CCC(=O)O)n4[B-]3(F)F)C(C)=C2)cc1OC [BAA-52a] | 577 | 585 |
| COc1cc(C=CC2=[N+]3C(=Cc4ccc(CCC(=O)O)n4[B-]3(F)F)C(C)=C2)cc(OC)c1 [BAA-53a] | 570 | 581 |
| CC1=CC(/C=C/c2ccc(Cl)c(F)c2)=[N+]2C1=Cc1ccc(CCC(=O)O)n1[B-]2(F)F [BAA-54a] | 573 | 581 |
| CC1=CC(C=Cc2cnn(-c3ccccc3)c2C)=[N+]2C1=Cc1ccc(CCC(=O)O)n1[B-]2(F)F [BAA-55a] | 576 | 592 |
| CC1=CC(C=Cc2cnn(-c3ccccc3)c2C)=[N+]2C1=Cc1ccc(C(=Cc3cnn(-c4ccccc4)c3C)CC(=O)O)n1[B-]2(F)F [BAA-55b] | 575 | 591 |
| CC1=CC(C=Cc2ccc(-c3cccs3)nc2)=[N+]2C1=Cc1ccc(CCC(=O)O)n1[B-]2(F)F [BAA-56a] | 585 | 595 |
| CC1=CC(C=Cc2ccc(-c3cccs3)nc2)=[N+]2C1=Cc1ccc(C(=Cc3ccc(-c4cccs4)nc3)CC(=O)O)n1[B-]2(F)F [BAA-56b] | 586 | 597 |
| CC1=CC(C=Cc2cnn(-c3ccccc3C)c2C)=[N+]2C1=Cc1ccc(CCC(=O)O)n1[B-]2(F)F [BAA-57a] | 574 | 590 |

same assay, conditions: anhydrous DMSO; emission

| SMILES | FWHM (full-width-at half max) |
| --- | --- |
| CC1=CC(C=Cc2ccc(OC(=O)c3ccc(Cl)cc3)cc2)=[N+]2C1=Cc1ccc(CCC(=O)O)n1[B-]2(F)F [BAA-43a] | 31 |
| COc1cc(C=CC2=[N+]3C(=Cc4ccc(C(=Cc5ccc(OCc6cccc(C(F)(F)F)c6)c(OC)c5)CC(=O)O)n4[B-]3(F)F)C(C)=C2)ccc1OCc1cccc(C(F)(F)F)c1 [BAA-44b] | 43 |
| CCOc1ccc(C=CC2=[N+]3C(=Cc4ccc(CCC(=O)O)n4[B-]3(F)F)C(C)=C2)c(OCC)c1 [BAA-47a] | 47 |
| CC1=CC(C=Cc2c[nH]c3ccc(OCc4ccccc4)cc23)=[N+]2C1=Cc1ccc(CCC(=O)O)n1[B-]2(F)F [BAA-48a] | 60 |
| CC1=CC(C=Cc2cc(-n3ccnc3)ccc2C)=[N+]2C1=Cc1ccc(CCC(=O)O)n1[B-]2(F)F [BAA-50a] | 33 |
| CC1=CC(C=Cc2cc(-n3ccnc3)ccc2C)=[N+]2C1=Cc1ccc(C(=Cc3cc(-n4ccnc4)ccc3C)CC(=O)O)n1[B-]2(F)F [BAA-50b] | 34 |
| CCOc1ccc2[nH]c(=O)cc(C=CC3=[N+]4C(=Cc5ccc(CCC(=O)O)n5[B-]4(F)F)C(C)=C3)c2c1 [BAA-51a] | 42 |
| C#CCOc1c(Cl)cc(C=CC2=[N+]3C(=Cc4ccc(CCC(=O)O)n4[B-]3(F)F)C(C)=C2)cc1OC [BAA-52a] | 51 |
| COc1cc(C=CC2=[N+]3C(=Cc4ccc(CCC(=O)O)n4[B-]3(F)F)C(C)=C2)cc(OC)c1 [BAA-53a] | 30 |
| CC1=CC(/C=C/c2ccc(Cl)c(F)c2)=[N+]2C1=Cc1ccc(CCC(=O)O)n1[B-]2(F)F [BAA-54a] | 46 |
| CC1=CC(C=Cc2cnn(-c3ccccc3)c2C)=[N+]2C1=Cc1ccc(CCC(=O)O)n1[B-]2(F)F [BAA-55a] | 35 |
| CC1=CC(C=Cc2cnn(-c3ccccc3)c2C)=[N+]2C1=Cc1ccc(C(=Cc3cnn(-c4ccccc4)c3C)CC(=O)O)n1[B-]2(F)F [BAA-55b] | 38 |
| CC1=CC(C=Cc2ccc(-c3cccs3)nc2)=[N+]2C1=Cc1ccc(CCC(=O)O)n1[B-]2(F)F [BAA-56a] | 32 |
| CC1=CC(C=Cc2ccc(-c3cccs3)nc2)=[N+]2C1=Cc1ccc(C(=Cc3ccc(-c4cccs4)nc3)CC(=O)O)n1[B-]2(F)F [BAA-56b] | 35 |
| CC1=CC(C=Cc2cnn(-c3ccccc3C)c2C)=[N+]2C1=Cc1ccc(CCC(=O)O)n1[B-]2(F)F [BAA-57a] | 45 |

same assay, conditions: anhydrous DMSO; relative to reference fluorophore at three concentrations

| SMILES | φfl (quantum yield) |
| --- | --- |
| CC1=CC(C=Cc2ccc(OC(=O)c3ccc(Cl)cc3)cc2)=[N+]2C1=Cc1ccc(CCC(=O)O)n1[B-]2(F)F [BAA-43a] | 0.45 |
| COc1cc(C=CC2=[N+]3C(=Cc4ccc(C(=Cc5ccc(OCc6cccc(C(F)(F)F)c6)c(OC)c5)CC(=O)O)n4[B-]3(F)F)C(C)=C2)ccc1OCc1cccc(C(F)(F)F)c1 [BAA-44b] | 0.28 |
| CCOc1ccc(C=CC2=[N+]3C(=Cc4ccc(CCC(=O)O)n4[B-]3(F)F)C(C)=C2)c(OCC)c1 [BAA-47a] | 0.33 |
| CC1=CC(C=Cc2c[nH]c3ccc(OCc4ccccc4)cc23)=[N+]2C1=Cc1ccc(CCC(=O)O)n1[B-]2(F)F [BAA-48a] | 0.45 |
| CC1=CC(C=Cc2cc(-n3ccnc3)ccc2C)=[N+]2C1=Cc1ccc(CCC(=O)O)n1[B-]2(F)F [BAA-50a] | 0.28 |
| CC1=CC(C=Cc2cc(-n3ccnc3)ccc2C)=[N+]2C1=Cc1ccc(C(=Cc3cc(-n4ccnc4)ccc3C)CC(=O)O)n1[B-]2(F)F [BAA-50b] | 0.12 |
| CCOc1ccc2[nH]c(=O)cc(C=CC3=[N+]4C(=Cc5ccc(CCC(=O)O)n5[B-]4(F)F)C(C)=C3)c2c1 [BAA-51a] | 0.06 |
| C#CCOc1c(Cl)cc(C=CC2=[N+]3C(=Cc4ccc(CCC(=O)O)n4[B-]3(F)F)C(C)=C2)cc1OC [BAA-52a] | 0.04 |
| COc1cc(C=CC2=[N+]3C(=Cc4ccc(CCC(=O)O)n4[B-]3(F)F)C(C)=C2)cc(OC)c1 [BAA-53a] | 0.44 |
| CC1=CC(/C=C/c2ccc(Cl)c(F)c2)=[N+]2C1=Cc1ccc(CCC(=O)O)n1[B-]2(F)F [BAA-54a] | 0.04 |
| CC1=CC(C=Cc2cnn(-c3ccccc3)c2C)=[N+]2C1=Cc1ccc(CCC(=O)O)n1[B-]2(F)F [BAA-55a] | 0.75 |
| CC1=CC(C=Cc2cnn(-c3ccccc3)c2C)=[N+]2C1=Cc1ccc(C(=Cc3cnn(-c4ccccc4)c3C)CC(=O)O)n1[B-]2(F)F [BAA-55b] | 0.75 |
| CC1=CC(C=Cc2ccc(-c3cccs3)nc2)=[N+]2C1=Cc1ccc(CCC(=O)O)n1[B-]2(F)F [BAA-56a] | 0.91 |
| CC1=CC(C=Cc2ccc(-c3cccs3)nc2)=[N+]2C1=Cc1ccc(C(=Cc3ccc(-c4cccs4)nc3)CC(=O)O)n1[B-]2(F)F [BAA-56b] | 0.15 |
| CC1=CC(C=Cc2cnn(-c3ccccc3C)c2C)=[N+]2C1=Cc1ccc(CCC(=O)O)n1[B-]2(F)F [BAA-57a] | 0.75 |

— patent US20170233414A1, “DERIVATIVES OF BODIPY” (OREGON HEALTH & SCIENCE UNIVERSITY, priority 2016, published 2017)
